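Interpolation was linear, between the two tested concentrations surrounding the appropriate level; five concentrations were tested over 48 hours in 96-well plates. TGI: concentration producing complete growth inhibition.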
What was measured:
Experiment in all cases: DTP human tumour cell line panel, 48 h
HT29 colon = system: HT29 colon
NCI-H226 lung = system: NCI-H226 lung
SK-MEL-5 melanoma = system: SK-MEL-5 melanoma
UACC-257 melanoma = system: UACC-257 melanoma
NCI/ADR-RES ovarian = system: NCI/ADR-RES ovarian
TK-10 renal = system: TK-10 renal
OVCAR-5 ovarian = system: OVCAR-5 ovarian
MDA-N = system: MDA-N
SK-MEL-28 melanoma = system: SK-MEL-28 melanoma
PC-3 prostate = system: PC-3 prostate
SR leukemia = system: SR leukemia
UO-31 renal = system: UO-31 renal
CCRF-CEM leukemia = system: CCRF-CEM leukemia
MCF7 breast = system: MCF7 breast
BT-549 breast = system: BT-549 breast
HCT-15 colon = system: HCT-15 colon
LOX IMVI melanoma = system: LOX IMVI melanoma
HCC-2998 colon = system: HCC-2998 colon
SK-OV-3 ovarian = system: SK-OV-3 ovarian
ACHN renal = system: ACHN renal
786-0 renal = system: 786-0 renal
OVCAR-4 ovarian = system: OVCAR-4 ovarian
RPMI-8226 leukemia = system: RPMI-8226 leukemia
UACC-62 melanoma = system: UACC-62 melanoma
HCT-116 colon = system: HCT-116 colon
KM12 colon = system: KM12 colon
MALME-3M melanoma = system: MALME-3M melanoma
U251 CNS = system: U251 CNS
MDA-MB-435 = system: MDA-MB-435
NCI-H23 lung = system: NCI-H23 lung
SF-539 CNS = system: SF-539 CNS
A498 renal = system: A498 renal
K-562 leukemia = system: K-562 leukemia
SNB-19 CNS = system: SNB-19 CNS
SN12C renal = system: SN12C renal
SF-268 CNS = system: SF-268 CNS
DU-145 prostate = system: DU-145 prostate
MDA-MB-231 breast = system: MDA-MB-231 breast
NCI-H460 lung = system: NCI-H460 lung
SNB-75 CNS = system: SNB-75 CNS
OVCAR-3 ovarian = system: OVCAR-3 ovarian
OVCAR-8 ovarian = system: OVCAR-8 ovarian
HS 578T breast = system: HS 578T breast
EKVX NSCLC = system: EKVX NSCLC
HL-60(TB) leukemia = system: HL-60(TB) leukemia
SF-295 CNS = system: SF-295 CNS
COLO 205 colon = system: COLO 205 colon
HOP-62 NSCLC = system: HOP-62 NSCLC
SK-MEL-2 melanoma = system: SK-MEL-2 melanoma
SW-620 colon = system: SW-620 colon
A549 NSCLC = system: A549 NSCLC
M14 melanoma = system: M14 melanoma
RXF 393 renal = system: RXF 393 renal
CAKI-1 renal = system: CAKI-1 renal
MOLT-4 leukemia = system: MOLT-4 leukemia
IGROV1 ovarian = system: IGROV1 ovarian

In the case of `Cc1ccc(S(=O)(=O)N(c2ccccc2F)C2CCCCC2O)cc1` (stereo not given), the TGI (HT29 colon) is reported as > 100 µM, the TGI (NCI-H226 lung) is reported as > 100 µM and the TGI (SK-MEL-5 melanoma) is reported as 56.9 µM. For the same molecule, the TGI (UACC-257 melanoma) was 5.64 µM, the TGI (NCI/ADR-RES ovarian) was > 100 µM and the TGI (TK-10 renal) was > 100 µM. For the same molecule, the TGI (OVCAR-5 ovarian) was > 100 µM, the TGI (MDA-N) was 50.1 µM and the TGI (SK-MEL-28 melanoma) was > 100 µM. The TGI (PC-3 prostate) was > 100 µM, the TGI (SR leukemia) was 51.8 µM and the TGI (UO-31 renal) was > 100 µM. The TGI (CCRF-CEM leukemia) was > 100 µM, the TGI (MCF7 breast) was 48.5 µM and the TGI (BT-549 breast) was 61.8 µM. The TGI (HCT-15 colon) was > 100 µM, the TGI (LOX IMVI melanoma) was > 100 µM and the TGI (HCC-2998 colon) was > 100 µM. The TGI (SK-OV-3 ovarian) was 64 µM, the TGI (ACHN renal) was > 100 µM and the TGI (786-0 renal) was > 100 µM. The TGI (OVCAR-4 ovarian) was > 100 µM, the TGI (RPMI-8226 leukemia) was > 100 µM and the TGI (UACC-62 melanoma) was > 100 µM. The TGI (HCT-116 colon) was > 100 µM, the TGI (KM12 colon) was > 100 µM and the TGI (MALME-3M melanoma) was > 100 µM. For the same molecule, the TGI (U251 CNS) was > 100 µM, the TGI (MDA-MB-435) was 48.5 µM and the TGI (NCI-H23 lung) was > 100 µM. For the same molecule, the TGI (SF-539 CNS) was > 100 µM, the TGI (A498 renal) was > 100 µM and the TGI (K-562 leukemia) was > 100 µM. For the same molecule, the TGI (SNB-19 CNS) was > 100 µM, the TGI (SN12C renal) was > 100 µM and the TGI (SF-268 CNS) was > 100 µM. For the same molecule, the TGI (DU-145 prostate) was 96.7 µM, the TGI (MDA-MB-231 breast) was > 100 µM and the TGI (NCI-H460 lung) was > 100 µM. The TGI (SNB-75 CNS) was 88.5 µM, the TGI (OVCAR-3 ovarian) was 66.9 µM and the TGI (OVCAR-8 ovarian) was > 100 µM. For the same molecule, the TGI (HS 578T breast) was > 100 µM, the TGI (EKVX NSCLC) was > 100 µM and the TGI (HL-60(TB) leukemia) was > 100 µM. For the same molecule, the TGI (SF-295 CNS) was > 100 µM, the TGI (COLO 205 colon) was 71.3 µM and the TGI (HOP-62 NSCLC) was > 100 µM. For the same molecule, the TGI (SK-MEL-2 melanoma) was 93.7 µM, the TGI (SW-620 colon) was > 100 µM and the TGI (A549 NSCLC) was > 100 µM. The TGI (M14 melanoma) was > 100 µM.
With `CCCCCCCCCCCCCCCCC(C(=O)O)C(O)(CC(=O)O)C(=O)O` (stereo not given) the TGI (HT29 colon) was 45.4 µM, the TGI (NCI-H226 lung) was 47.3 µM and the TGI (SK-MEL-5 melanoma) was > 100 µM. The TGI (UACC-257 melanoma) was > 100 µM, the TGI (NCI/ADR-RES ovarian) was > 100 µM and the TGI (TK-10 renal) was > 100 µM. For the same molecule, the TGI (OVCAR-5 ovarian) was 35.1 µM, the TGI (MDA-N) was > 100 µM and the TGI (RXF 393 renal) was 53.4 µM. The TGI (SK-MEL-28 melanoma) was 59.1 µM, the TGI (PC-3 prostate) was 38.8 µM and the TGI (SR leukemia) was 81 µM. The TGI (UO-31 renal) was 45.4 µM, the TGI (CAKI-1 renal) was 46.3 µM and the TGI (CCRF-CEM leukemia) was 79.2 µM. For the same molecule, the TGI (MCF7 breast) was > 100 µM, the TGI (BT-549 breast) was 51.3 µM and the TGI (HCT-15 colon) was > 100 µM. It also gave a TGI (MOLT-4 leukemia) of 61.6 µM, a TGI (LOX IMVI melanoma) of 66.3 µM and a TGI (SK-OV-3 ovarian) of 36.1 µM. The TGI (ACHN renal) was > 100 µM, the TGI (786-0 renal) was > 100 µM and the TGI (RPMI-8226 leukemia) was 74.8 µM. For the same molecule, the TGI (UACC-62 melanoma) was 48.9 µM, the TGI (HCT-116 colon) was 36.3 µM and the TGI (KM12 colon) was 37.3 µM. The TGI (MALME-3M melanoma) was > 100 µM, the TGI (U251 CNS) was 33.1 µM and the TGI (MDA-MB-435) was > 100 µM. It also gave a TGI (NCI-H23 lung) of 64.6 µM, a TGI (SF-539 CNS) of 89.3 µM and a TGI (A498 renal) of 47.6 µM. For the same molecule, the TGI (K-562 leukemia) was > 100 µM, the TGI (IGROV1 ovarian) was 46.4 µM and the TGI (SNB-19 CNS) was 79.3 µM. For the same molecule, the TGI (SN12C renal) was 53.6 µM, the TGI (SF-268 CNS) was 70.3 µM and the TGI (DU-145 prostate) was > 100 µM. The TGI (MDA-MB-231 breast) was 75.8 µM, the TGI (NCI-H460 lung) was 46.6 µM and the TGI (SNB-75 CNS) was 43.8 µM. The TGI (OVCAR-3 ovarian) was 35.8 µM, the TGI (OVCAR-8 ovarian) was > 100 µM and the TGI (HS 578T breast) was 58.6 µM. The TGI (EKVX NSCLC) was 39.3 µM, the TGI (HL-60(TB) leukemia) was 34.4 µM and the TGI (SF-295 CNS) was 35.5 µM. The TGI (COLO 205 colon) was 35 µM, the TGI (HOP-62 NSCLC) was 34.1 µM and the TGI (SK-MEL-2 melanoma) was 41.4 µM. The TGI (SW-620 colon) was 46.6 µM and the TGI (M14 melanoma) was 47.7 µM.

— PubChem BioAssay (NCI)
